According to article PMC11536976 (RSC Advances, 2024):
Like-named read-outs stand apart in the source and are kept apart here.

Key:
Format in all cases: cell-based, human
[1] = system: A549 cells; assay: MTT cytotoxicity assay, A549; settings: for IC50: read-out: IC50 A549; for SI A549: selectivity index = IC50 in MRC-5 / IC50 in A549
[2] = system: SW480 cells; assay: MTT cytotoxicity assay, SW480; settings: for IC50: Homo sapiens, SW480, 72 h, read-out: IC50 SW480; for SI SW480: selectivity index = IC50 in MRC-5 / IC50 in SW480
[3] = system: A549 cells; assay: Apoptosis assay, Annexin V-FITC/PI flow cytometry; settings: 24 h; for early apoptotic cells (Q3, annexin+/PI-): control 1.8%; for late apoptotic cells (Q2, annexin+/PI+): control 2.4%
[4] = system: A549 cells; assay: Cell cycle analysis by flow cytometry; settings: 24 h; for cell population in S phase: control 18.89%; for cell population in G0/G1 phase: control 67.87%

| SMILES | IC50 [2] | IC50 ([1]; Homo sapiens, A549, 72 h) | other results |
| --- | --- | --- | --- |
| N.N.[Cl][Pt][Cl] [Cisplatin, reference compound] |  |  | IC50 ([1]; MTT, 72 h, mean ± SD of 3–4 independent replicates): 5.77 ± 1.6 µM |
| CCCCNC(=O)c1ccc2nc(-c3cc(OC)c(OC)c(OC)c3)[nH]c2c1 [Compound 5a, N-Butyl-2-(3,4,5-trimethoxyphenyl)-1H-benzo[d]imidazole-6-carboxamide] | 46.1 ± 9.23 µM | 24.8 ± 5.21 µM |  |
| COc1cc(-c2nc3ccc(C(=O)NCC(C)C)cc3[nH]2)cc(OC)c1OC [Compound 5b, N-Isobutyl-2-(3,4,5-trimethoxyphenyl)-1H-benzo[d]imidazole-6-carboxamide] | 18.8 ± 3.25 µM | 0.82 ± 0.2 µM |  |
| COc1cc(-c2nc3ccc(C(=O)NCc4ccccc4)cc3[nH]2)cc(OC)c1OC [Compound 5c, N-Benzyl-2-(3,4,5-trimethoxyphenyl)-1H-benzo[d]imidazole-6-carboxamide] | 34.8 ± 5.37 µM | 16.3 ± 5.73 µM |  |
| COc1cc(-c2nc3ccc(C(=O)NCCc4ccccc4)cc3[nH]2)cc(OC)c1OC [Compound 5d, N-Phenethyl-2-(3,4,5-trimethoxyphenyl)-1H-benzo[d]imidazole-6-carboxamide] | 18.2 ± 2.69 µM | 0.66 ± 0.13 µM |  |
| COc1cc(-c2nc3ccc(C(=O)Nc4ccccc4)cc3[nH]2)cc(OC)c1OC [Compound 5e, N-Phenyl-2-(3,4,5-trimethoxyphenyl)-1H-benzo[d]imidazole-6-carboxamide] | 5.45 ± 0.67 µM | 0.23 ± 0.05 µM | SI SW480 [2]: 2.1; SI A549 [1]: 50.2 |
| COc1cc(-c2nc3ccc(C(=O)Nc4ccccc4F)cc3[nH]2)cc(OC)c1OC [Compound 5f, N-(2-Fluorophenyl)-2-(3,4,5-trimethoxyphenyl)-1H-benzo[d]imidazole-6-carboxamide] | 6.38 ± 1.95 µM | 0.67 ± 0.15 µM | SI SW480 [2]: 1.7; SI A549 [1]: 15.8 |
| COc1cc(-c2nc3ccc(C(=O)Nc4ccccc4Cl)cc3[nH]2)cc(OC)c1OC [Compound 5g, N-(2-Chlorophenyl)-2-(3,4,5-trimethoxyphenyl)-1H-benzo[d]imidazole-6-carboxamide] | 49.1 ± 2.84 µM | 17.3 ± 3.5 µM |  |
| COc1cc(-c2nc3ccc(C(=O)Nc4cccc(Cl)c4)cc3[nH]2)cc(OC)c1OC [Compound 5h, N-(3-Chlorophenyl)-2-(3,4,5-trimethoxyphenyl)-1H-benzo[d]imidazole-6-carboxamide] | 52.7 ± 2.96 µM | 27.5 ± 6.78 µM |  |
| COc1cc(-c2nc3ccc(C(=O)Nc4ccc([N+](=O)[O-])cc4Cl)cc3[nH]2)cc(OC)c1OC [Compound 5i, N-(2-Chloro-4-nitrophenyl)-2-(3,4,5-trimethoxyphenyl)-1H-benzo[d]imidazole-6-carboxamide] | 20.2 ± 7.21 µM | 5.78 ± 4.85 µM |  |
| COc1cc(-c2nc3ccc(C(=O)Nc4ccc(Br)cc4)cc3[nH]2)cc(OC)c1OC [Compound 5j, N-(4-Bromophenyl)-2-(3,4,5-trimethoxyphenyl)-1H-benzo[d]imidazole-6-carboxamide] | 15.2 ± 2.58 µM | 13.1 ± 1.27 µM |  |
| COc1cc(-c2nc3ccc(C(=O)Nc4cccc([N+](=O)[O-])c4)cc3[nH]2)cc(OC)c1OC [Compound 5k, N-(3-Nitrophenyl)-2-(3,4,5-trimethoxyphenyl)-1H-benzo[d]imidazole-6-carboxamide] | 16.8 ± 1.41 µM | 14.4 ± 3.53 µM |  |
| COc1cc(-c2nc3ccc(C(=O)Nc4ccccc4C)cc3[nH]2)cc(OC)c1OC [Compound 5l, N-(o-Tolyl)-2-(3,4,5-trimethoxyphenyl)-1H-benzo[d]imidazole-6-carboxamide] | 9.31 ± 0.21 µM | 0.92 ± 0.39 µM |  |
| COc1cc(-c2nc3ccc(C(=O)Nc4ccc(C)cc4)cc3[nH]2)cc(OC)c1OC [Compound 5m, N-(p-Tolyl)-2-(3,4,5-trimethoxyphenyl)-1H-benzo[d]imidazole-6-carboxamide] | 13 ± 1.2 µM | 0.52 ± 0.12 µM | SI SW480 [2]: 1.2; SI A549 [1]: 28.9 |
| COc1cc(-c2nc3ccc(C(=O)Nc4ccc(C)cc4C)cc3[nH]2)cc(OC)c1OC [Compound 5n, N-(2,4-Dimethylphenyl)-2-(3,4,5-trimethoxyphenyl)-1H-benzo[d]imidazole-6-carboxamide] | 14.8 ± 1.63 µM | 1.38 ± 0.23 µM |  |
| COc1ccc(NC(=O)c2ccc3nc(-c4cc(OC)c(OC)c(OC)c4)[nH]c3c2)c(OC)c1 [Compound 5o, N-(2,4-Dimethoxyphenyl)-2-(3,4,5-trimethoxyphenyl)-1H-benzo[d]imidazole-6-carboxamide] | 3.68 ± 0.59 µM | 0.15 ± 0.01 µM | total apoptosis rate (Q2 + Q3) ([3]; A549, 0.15 μM): 15.2%; early apoptotic cells (Q3, annexin+/PI-) ([3]; A549, 0.15 μM): 9.8%; late apoptotic cells (Q2, annexin+/PI+) ([3]; A549, 0.15 μM): 5.4%; total apoptosis rate (Q2 + Q3) ([3]; A549, 0.30 μM): 74.3%; early apoptotic cells (Q3, annexin+/PI-) ([3]; A549, 0.30 μM): 34.4%; late apoptotic cells (Q2, annexin+/PI+) ([3]; A549, 0.30 μM): 39.9%; fold stronger cytotoxic activity than cisplatin ([2]; SW480 cells): 4.1 fold; fold stronger cytotoxic activity than etoposide ([2]; SW480 cells): 4.5 fold; SI SW480 [2]: 32.4; cell population in S phase ([4]; A549, 0.15 μM): 43.58%; cell population in G0/G1 phase ([4]; A549, 0.15 μM): 46.44%; cell population in G2/M phase ([4]; A549, 0.30 μM, control 13.24%): 4.53%; cell population in S phase ([4]; A549, 0.30 μM): 60.31%; cell population in G0/G1 phase ([4]; A549, 0.30 μM): 35.16%; fold higher cytotoxic activity than cisplatin ([1]; A549 cells): 38.5 fold; fold higher cytotoxic activity than doxorubicin ([1]; A549 cells): 3.1 fold; fold higher cytotoxic activity than etoposide ([1]; A549 cells): 62.9 fold; SI A549 [1]: 794.6 |
| COc1cccc2c1C(=O)c1c(O)c3c(c(O)c1C2=O)C[C@@](O)(C(=O)CO)C[C@@H]3O[C@H]1C[C@H](N)[C@H](O)[C@H](C)O1 [Doxorubicin, reference compound] | 0.59 ± 0.07 µM | 0.46 ± 0.02 µM | SI SW480 [2]: 0.7; SI A549 [1]: 0.8 |
| COc1cc([C@@H]2c3cc4c(cc3[C@@H](O[C@@H]3O[C@@H]5CO[C@@H](C)O[C@H]5[C@H](O)[C@H]3O)[C@H]3COC(=O)[C@H]23)OCO4)cc(OC)c1O [Etoposide, reference compound] | 16.6 ± 2.3 µM | 9.44 ± 1.98 µM |  |
